Measurements from US20140357512A1, “HISTONE DEACETYLASE (HDAC) BIOMARKERS IN MULTIPLE MYELOMA” (priority 2013, published 2014).

Tested on: human myeloma cell line MM.1S
Assay: SILAC acetylated-lysine peptide profiling, HDAC inhibitor vs DMSO (light/heavy ratio)
Type: cell-based
Excerpt: An embodiment of the invention comprises utilizing the SILAC method in order to quantitate changes in protein expression between two or more populations of cells. The SILAC method is a technique based on mass spectrometry that detects differences in protein abundance among samples using non-radioactive isotopic labeling. The SILAC method is known in the art, and described in detail in Ong et al., “Stable Isotope Labeling by Amino Acids in Cell Culture, SILAC, as a Simple and Accurate Approach to Expression Proteomics”, Molecular & Cellular Proteomics, vol. 1, pp. 376-386 (2002), which is incorporated herein by reference in its entirety.
Briefly, the SILAC method involves growing two populations of cells in cell culture. The first population of cells is grown in growth media containing normal amino acids (“normal media”). The second population of cells is grown in media lacking a standard essential amino acid (such as lysine), but is then supplemented with a non-radioactive, isotopically labeled form of that essential amino acid (such as lysine labeled with ^13C atoms, rather than normal ^12C atoms), which is called “heavy media”. When the two populations of cells are each growing in the medium, they incorporate the amino acids into all of their proteins. The growth of cells maintained in the heavy media is no different from that in normal media. All peptides containing the heavy amino acids are heavier than their normal counterparts. The cells from each of the two populations of cells are lysed. The lysates from each of the two cell populations are then combined. The combined cell lysates are then analyzed by mass spectrometry. Pairs of chemically identical peptides of different stable isotope composition can be differentiated in a mass spectrometer due to their difference in mass. The ratio of peak intensities in the mass spectrum for such peptide pairs reflects the abundance ratio for the two proteins.
This example describes SILAC studies that were performed to compare the effects of three different HDAC inhibitors (Compound A, Compound B, and tubastatin A) to a control on a human multiple myeloma cell line. The HDAC inhibitors were also compared amongst themselves to determine differences in their effects.
A human myeloma cell line MM.1S was grown using either ^12C (light) or ^13C (heavy) lysine containing culture medium. The “heavy” cells were treated with DMSO as the control, and the “light” cells were treated with a single HDAC inhibitor at 37° C. for 6 hours. The heavy and light cells were lysed, and the lysates were mixed in 1:1 ratio and digested with the protease trypsin. The acetylated lysine containing peptides (due to the action of the HDAC inhibitor) in the digested peptide pool were captured by a non-specific anti-acetylated lysine antibody cocktail (the antibodies identify both light and heavy acetylated peptides), and subjected to mass spectrometry analysis in order to identify thousands of individual peptides.
Thousands of peptides were identified in pairs (^12C and ^13C) due to their known mass differences. The amino acid sequence and quantitative ratio (Light/Heavy) of a given peptide in two differentially treated cell lysates were then determined and annotated with their possible protein (gene) sources.
As stated above, three HDAC inhibitors (Compound A, Compound B, and Tubastatin A) were used. Thus, the SILAC method was performed three times, with a different HDAC inhibitor compared to a control each time. Accordingly, there are three pairs of quantitative data in the table below, i.e., Compound A:DMSO, Compound B:DMSO, and Tubastatin A:DMSO. A cut-off of 1.30 fold of change (increase or decrease) was then used to determine “changed” or “+” in the table, and any peptides with a fold of change less than 1.3 fold were determined to be “unchanged” or “0” in the table. Those peptides that were not identified were marked as “NA” in the table. […]

## O=C(CCCCCCNC(=O)c1cnc(N(c2ccccc2)c2ccccc2)nc1)NO [Compound A, 2-(diphenylamino)-N-(7-(hydroxyamino)-7-oxoheptyl)pyrimidine-5-carboxamide]
Isoform 1 of Heterogeneous nuclear ribonucleoprotein H3 [76], gene HNRNPH3, inhibitor:DMSO
  light to heavy ratio (L/H ratio) of acetylated peptide EIAENALGK(ac)HK (SEQ ID NO: 617): 0.47 log 2
Isoform 1 of Histone-lysine N-methyltransferase MLL3 [758], gene MLL3, inhibitor:DMSO
  light to heavy ratio (L/H ratio) of acetylated peptide DVSYQGGK(ac)SIK (SEQ ID NO: 571): 0.42 log 2
Isoform 1 of Histone-lysine N-methyltransferase MLL3 [2809], gene MLL3, inhibitor:DMSO
  light to heavy ratio (L/H ratio) of acetylated peptide TLVLSDK(ac)HSPQK (SEQ ID NO: 523): −0.46 log 2
Isoform 1 of Hydroxyacyl-coenzyme A dehydrogenase mitochondrial [127], gene HADH, inhibitor:DMSO
  light to heavy ratio (L/H ratio) of acetylated peptide VK(ac)NELFK (SEQ ID NO: 565): 0.41 log 2
Isoform 1 of Hydroxyacyl-coenzyme A dehydrogenase mitochondrial [301], HADH, drug:DMSO
  light to heavy ratio (L/H ratio) of acetylated peptide LVAENK(ac)FGK (SEQ ID NO: 296): 0.74 log 2
Isoform 1 of L-lactate dehydrogenase A chain [318], LDHA, drug:DMSO
  light to heavy ratio (L/H ratio) of acetylated peptide K(ac)[…] (SEQ ID NO: 316): 1.00 log 2
Isoform 1 of Myosin-9 [435], MYH9, drug:DMSO
  light to heavy ratio (L/H ratio) of acetylated peptide INK(ac)ALDK (SEQ ID NO: 344): 0.00 log 2
Isoform 1 of Myosin-9 [439], gene MYH9, drug:DMSO
  light to heavy ratio (L/H ratio), log 2 scale, acetylated peptide INKALDK(ac)TK (SEQ ID NO: 802): 1.00
Isoform 1 of N-alpha-acetyltransferase 50 NatE catalytic subunit [37], gene NAA50, inhibitor:DMSO
  light to heavy ratio (L/H ratio) of acetylated peptide FYK(ac)[…] (SEQ ID NO: 596): 0.45 log 2
Isoform 1 of NADH-cytochrome b5 reductase 3 [115], gene CYB5R3, drug:DMSO
  light to heavy ratio (L/H ratio), log 2 scale, acetylated peptide VYFK(ac)DTHPK (SEQ ID NO: 758): 0.90
Isoform 1 of Peripherin [288], gene PRPH, drug:DMSO
  light to heavy ratio (L/H ratio), log 2 scale, acetylated peptide […](ac)SK (SEQ ID NO: 767): 0.94
Isoform 1 of Phosphatidylinositol-345-trisphosphate 5-phosphatase 1 [371], gene INPP5D, LOC646743, inhibitor:DMSO
  light to heavy ratio (L/H ratio) of acetylated peptide K(ac)EYVFADSK (SEQ ID NO: 616): 0.47 log 2
Isoform 1 of Polypyrimidine tract-binding protein 1 [368], gene PTBP1, inhibitor:DMSO
  light to heavy ratio (L/H ratio) of acetylated peptide VK(ac)ILFNK (SEQ ID NO: 561): 0.40 log 2
Isoform 1 of Protein FAM98A [297], gene FAM98A, inhibitor:DMSO
  light to heavy ratio (L/H ratio) of acetylated peptide TACAINK(ac)VLMGR (SEQ ID NO: 584): 0.43 log 2
Isoform 1 of Protein MB21D1 [414], gene MB21D1, inhibitor:DMSO
  light to heavy ratio (L/H ratio) of acetylated peptide LMK(ac)YLLEQLK (SEQ ID NO: 585): 0.43 log 2
Isoform 1 of Protein SET [154], SET, drug:DMSO
  light to heavy ratio (L/H ratio) of acetylated peptide VLSK(ac)[…] (SEQ ID NO: 294): 0.69 log 2
Isoform 1 of RNA-binding protein with serine-rich domain 1 [218], RNPS1, drug:DMSO
  light to heavy ratio (L/H ratio) of acetylated peptide […](ac)ALK (SEQ ID NO: 349): 0.00 log 2
Isoform 1 of Signal recognition particle 9 kDa protein [52], gene SRP9, drug:DMSO
  light to heavy ratio (L/H ratio), log 2 scale, acetylated peptide […](ac)TDQAQDVK (SEQ ID NO: 765): 0.93
Isoform 1 of Signal transducer and activator of transcription 2 [158:161], gene STAT2, drug:DMSO
  light to heavy ratio (L/H ratio), log 2 scale, acetylated peptide AMMEK(ac)LVK(ac)SISQLK (SEQ ID NO: 814): 1.00
Isoform 1 of U5 small nuclear ribonucleoprotein 200 kDa helicase [745], gene SNRNP200, inhibitor:DMSO
  light to heavy ratio (L/H ratio) of acetylated peptide DMCLEK(ac)DTLGLFLR (SEQ ID NO: 530): −0.41 log 2
Isoform 1 of UDP-N-acetylglucosamine--dolichyl-phosphate N-acetylglucosaminephosphotransferase [320], DPAGT1, drug:DMSO
  light to heavy ratio (L/H ratio) of acetylated peptide LEMSYSK(ac)FK (SEQ ID NO: 304): 1.00 log 2
Isoform 1 of UDP-glucose:glycoprotein glucosyltransferase 1 [176], gene UGGT1, inhibitor:DMSO
  light to heavy ratio (L/H ratio) of acetylated peptide PK(ac)PLLFK (SEQ ID NO: 544): 0.39 log 2
Isoform 2 of Double-stranded RNA-specific adenosine deaminase [1013], ADAR, drug:DMSO
  light to heavy ratio (L/H ratio) of acetylated peptide TMSCSDK(ac)ILR (SEQ ID NO: 323): 0.00 log 2
Isoform 2 of Fibronectin type-III domain-containing protein 3A [507], FNDC3A, drug:DMSO
  light to heavy ratio (L/H ratio) of acetylated peptide […](ac)[…] (SEQ ID NO: 336): 0.00 log 2
Isoform 2 of Heat shock protein HSP 90-alpha [565], gene HSP90AA1, drug:DMSO
  light to heavy ratio (L/H ratio), log 2 scale, acetylated peptide FYEQFSK(ac)NIK (SEQ ID NO: 799): 1.00
Isoform 2 of Inhibitor of growth protein 4 [145:147], gene ING4, inhibitor:DMSO
  light to heavy ratio (L/H ratio) of acetylated peptide SK(ac)GK(ac)NSDEEAPK (SEQ ID NO: 615): 0.47 log 2
Isoform 2 of Myosin-VI [646], gene MYO6, inhibitor:DMSO
  light to heavy ratio (L/H ratio) of acetylated peptide LSFISVGNK(ac)FK (SEQ ID NO: 521): −0.49 log 2
Isoform 2 of Neutral alpha-glucosidase AB [242], gene GANAB, inhibitor:DMSO
  light to heavy ratio (L/H ratio) of acetylated peptide AEK(ac)[…] (SEQ ID NO: 503): −0.71 log 2
Isoform 2 of Nipped-B-like protein [1000], gene NIPBL, inhibitor:DMSO
  light to heavy ratio (L/H ratio) of acetylated peptide GAK(ac)PVVVLQK (SEQ ID NO: 611): 0.47 log 2
Isoform 2 of Nuclear factor related to kappa-B-binding protein [1262], gene NFRKB, inhibitor:DMSO
  light to heavy ratio (L/H ratio) of acetylated peptide LIAGNK(ac)[…] (SEQ ID NO: 512): −0.58 log 2
Isoform 2 of Septin-7 [207], gene, inhibitor:DMSO
  light to heavy ratio (L/H ratio) of acetylated peptide […](ac)K (SEQ ID NO: 626): 0.49 log 2
Isoform 2 of Spliceosome RNA helicase DDX39B [349], SNORD84, DDX39B, drug:DMSO
  light to heavy ratio (L/H ratio) of acetylated peptide YQQFK(ac)DFQR (SEQ ID NO: 258): 0.39 log 2
Isoform 2 of Transportin-3 [513], gene TNPO3, inhibitor:DMSO
  light to heavy ratio (L/H ratio) of acetylated peptide GLCEK(ac)PLASAAAK (SEQ ID NO: 536): −0.39 log 2
Isoform 3 of Proline-rich protein 12 [1223], gene PRR12, drug:DMSO
  light to heavy ratio (L/H ratio), log 2 scale, acetylated peptide LEPLK(ac)PLK (SEQ ID NO: 772): 1.00
Isoform 3 of Reticulon-3 [217], gene RTN3, drug:DMSO
  light to heavy ratio (L/H ratio), log 2 scale, acetylated peptide DQTK(ac)SIVEK (SEQ ID NO: 810): 1.00
Isoform 5 of Interleukin enhancer-binding factor 3 [332], gene ILF3, inhibitor:DMSO
  light to heavy ratio (L/H ratio) of acetylated peptide LAAFGQLHK(ac)[…] (SEQ ID NO: 570): 0.41 log 2
